The text below walks through data of patent publication US9181244B1, “Substituted pyrido[2,3-c]pyridazin-4(1H)-ones as tumor necrosis factor alpha and phosphodiesterase 4 inhibitors” (Xuanzhu Pharma Co., Ltd., priority 2014, dated 2015).

One assay has as its target PDE-4B1 (Homo sapiens, UniProt Q07343). Briefly: Lance cAMP assay, PDE-4B1 inhibition. The class given is biochemical. The conditions noted are these: PDE4B1 0.18 nM, 20 nM cAMP, 90 min room temperature. The procedure:
(§1) Experimental Methods: Lance cAMP Assay:
(§2) Test samples were precisely weighed, added to and dissolved in DMSO, mixed sufficiently so as to reach 100 μM. The above mother solution was then diluted with DMSO to reach 1 μM, and then diluted 4 times to reach 0.0038 nM.
(§3) To 384 well plate were added 2.5 μl of substrate 20 nM cAMP and 50 nl of compound DMSO solution, then added 2.5 μl of PDE enzyme (PDE4B1 0.18 nM, PDE4D3 0.024 nM) buffer solution (1×HBSS, 5 mM Hepes pH 7.4, 3 mM MgCl2, 0.1% BSA). After incubation at room temperature for 90 min, 5 μl of Alexa Fluor® 647-anti cAMP antibody was added and incubated for 30 min, 10 μl of detection reagent was added and incubated for 60 min, then its LANCE signal was detected under 665 nm, inhibition rate was calculated by the following formulation, and IC50 values were calculated from inhibition rate using XLfit. Inhibition rate=[signal value (MAX)−signl value (sample)]×100/[signal value (MAX)−signal value (MIN)]
(§4) Notation: MAX: blank control without enzyme; MIN: blank control without compound.
A general note: cAMP levels reflect the balance of adenylyl cyclase and phosphodiesterase activity.

In a further assay the target is PDE-4D3 (Homo sapiens, UniProt Q08499). The assay is described as follows: Lance cAMP assay, PDE-4D3 inhibition. It counts as biochemical. The conditions noted are these: PDE4D3 0.024 nM, 20 nM cAMP, 90 min room temperature. The procedure: as §1, §2, §3, §4
PDE-4D3, sequence (Q08499 1-673 isoform Q08499-2): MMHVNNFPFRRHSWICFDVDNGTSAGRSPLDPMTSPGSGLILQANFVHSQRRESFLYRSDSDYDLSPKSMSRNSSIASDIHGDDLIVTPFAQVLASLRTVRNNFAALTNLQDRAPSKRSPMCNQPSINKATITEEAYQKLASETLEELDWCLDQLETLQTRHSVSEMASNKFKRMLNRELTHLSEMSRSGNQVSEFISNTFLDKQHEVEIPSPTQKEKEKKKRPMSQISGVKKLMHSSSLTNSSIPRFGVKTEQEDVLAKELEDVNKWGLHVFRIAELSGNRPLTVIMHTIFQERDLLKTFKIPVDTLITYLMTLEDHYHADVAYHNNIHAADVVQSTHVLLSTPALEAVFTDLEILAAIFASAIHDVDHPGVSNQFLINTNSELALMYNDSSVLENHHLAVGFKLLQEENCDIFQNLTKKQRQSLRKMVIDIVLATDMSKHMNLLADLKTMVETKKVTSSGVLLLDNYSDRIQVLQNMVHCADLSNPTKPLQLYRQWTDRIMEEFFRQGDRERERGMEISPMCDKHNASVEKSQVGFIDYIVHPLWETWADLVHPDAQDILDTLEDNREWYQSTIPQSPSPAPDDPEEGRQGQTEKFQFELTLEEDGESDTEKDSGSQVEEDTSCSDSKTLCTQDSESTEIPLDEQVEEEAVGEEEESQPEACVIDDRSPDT
For the next assay, the system named is TNF-α. Briefly: Inhibition activity of TNF-α in whole blood test (LPS-stimulated, ELISA). The class given is cell-based. Particulars: human whole blood diluted 1:1 with DPBS, lipopolysaccharide 100 ng/ml, overnight. The procedure: Experiment 2: Measurement of Inhibition Activity of TNF-α in Whole Blood Test
Fresh blood was collected from health human body using heparin sodium tubes. In Grade II Bio-safety Cabinet, whole blood was diluted in the ratio of 1:1 with DPBS (Dulbecco's Phosphate Buffered Saline). 100 μl of the diluted blood samples were taken and added to each of wells of a 96-well plate. 0.5 μl of compound solution was added to each well. The compound was formulated with dimethyl sulfoxide. The 96-well plate was placed in CO2 incubator and incubated for 30 min, then lipopolysaccharide in final concentration of 100 ng/ml was added, and incubated overnight. The 96-well plate was shaked for homogenization, and from each well 10 μl of solution was taken and transferred to another 96-well plate for ELISA to measure TNF-α content. The following formula was used to calculate inhibition rate, and the inhibition rate was used for calculation of IC50 value with XLfit. Inhibition rate=[signal value (MAX)−signal value (sample)]×100/[signal value (MAX)−signal value (MIN)]
Notation: MAX represents blank control stimulated with only lipopolysaccharide; MIN represents positive control with 1 μmol/l of dexamethasone.
In general terms: ELISA stands for enzyme-linked immunosorbent assay.

A further assay has as its system PDE4D, PDE4B. Particulars: some studies have shown; cited from earlier work.

PDE-4B1, sequence (Q07343 whole entry, species assumed): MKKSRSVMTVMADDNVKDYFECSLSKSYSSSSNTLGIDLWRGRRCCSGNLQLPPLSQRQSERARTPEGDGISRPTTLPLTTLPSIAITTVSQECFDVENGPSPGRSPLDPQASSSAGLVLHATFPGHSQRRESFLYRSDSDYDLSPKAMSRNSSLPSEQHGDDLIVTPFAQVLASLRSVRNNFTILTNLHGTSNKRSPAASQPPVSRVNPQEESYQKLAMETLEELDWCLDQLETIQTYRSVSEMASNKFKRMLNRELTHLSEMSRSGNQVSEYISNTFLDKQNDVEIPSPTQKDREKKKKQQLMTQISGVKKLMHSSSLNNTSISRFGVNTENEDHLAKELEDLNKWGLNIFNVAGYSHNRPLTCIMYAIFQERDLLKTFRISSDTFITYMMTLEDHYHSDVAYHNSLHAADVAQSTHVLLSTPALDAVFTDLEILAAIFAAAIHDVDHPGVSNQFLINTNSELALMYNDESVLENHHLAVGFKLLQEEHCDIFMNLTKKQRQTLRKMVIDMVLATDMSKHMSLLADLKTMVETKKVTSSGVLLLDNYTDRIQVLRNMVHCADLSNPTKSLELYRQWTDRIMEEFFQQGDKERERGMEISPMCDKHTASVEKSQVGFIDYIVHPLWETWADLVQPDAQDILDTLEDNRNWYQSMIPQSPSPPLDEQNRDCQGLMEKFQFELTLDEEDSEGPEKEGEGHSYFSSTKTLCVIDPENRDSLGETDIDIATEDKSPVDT

As a reminder, the IC50 is the point on the concentration scale where inhibition reaches its midpoint. With `O=C(NC1CC1)c1cn(-c2cccc(C#Cc3ccc[n+]([O-])c3)c2)c2ncccc2c1=O` [MK-0873, reference compound], the IC50 against PDE-4B1 was found to be 5.59 nM; at PDE-4D3 it was 4.58 nM; with TNF-α, 40.3 nM.
In the case of `O=C(NC1CC1)c1nn(-c2cccc(C#Cc3cccnc3)c2)c2ncccc2c1=O` [Compound 1, N-cyclopropyl-4-oxo-1-[3-(pyridin-3-ylethynyl)phenyl]-1,4-dihydropyridino[2,3-c]pyridazine-3-formamide], the IC50 was 2.68 nM on PDE-4B1, 2.19 nM against PDE-4D3 and 51 nM in the assay with TNF-α.
In the case of `O=C(NC1CC1)c1nn(-c2cccc(Oc3ccc[n+]([O-])c3)c2)c2ncccc2c1=O` [Nitrogen oxide of Compound 3], the IC50 came out at 526 nM on PDE-4B1 and 643 nM against PDE-4D3.
In the case of Roflumilast, the “activity to PDE4D compared with activity to PDE4B” value in the assay on PDE4D, PDE4B was “equivalent activity”.
For Cilomilast, in the assay on PDE4D, PDE4B, the “activity to PDE4D compared with activity to PDE4B” value is 10 time.
Compound `C[C@@H]1C[C@H]2[C@@H]3CCC4=CC(=O)C=C[C@]4(C)[C@@]3(F)[C@@H](O)C[C@]2(C)[C@@]1(O)C(=O)CO` [Dexamethasone, reference compound] had an IC50 with TNF-α of 3.3 nM.
On to `O=C(NC1CC1)c1nn(-c2cccc(C#Cc3ccc[n+]([O-])c3)c2)c2ncccc2c1=O` [Nitrogen oxide of Compound 1, 3-[[3-[3-(cyclopropylcarbamoyl)-4-oxo-pyridino[2,3-c]pyridazine-1(4H)-yl]phenyl]ethynyl]pyridine-1-oxide], for which the IC50 at PDE-4B1 stood at 28.1 nM; against PDE-4D3, 18.9 nM; with TNF-α it was 109 nM.
For the compound `O=C(NC1CC1)c1nn(-c2cccc(Oc3cccnc3)c2)c2ncccc2c1=O` [Compound 3, N-cyclopropyl-4-oxo-1-(3-(pyridin-3-yloxy)phenyl)-1,4-dihydropyridino[2,3-c]pyridazine-3-carboxamide], the IC50 against PDE-4B1 is 305 nM; on PDE-4D3, 358 nM.
On the same counts, the results for `O=C(NC1CC1)c1nn(-c2cccc(Sc3cccnc3)c2)c2ncccc2c1=O` [Compound 2, N-cyclopropyl-4-oxo-1-[3-(pyridin-3-ylthio)phenyl]-1,4-dihydropyridino[2,3-c]pyridazine-3-carboxamide] are 161 nM and 250 nM.
